In ChEMBL document CHEMBL5120927, “LEGO-Lipophosphonoxins: A Novel Approach in Designing Membrane Targeting Antimicrobials” (J Med Chem, 2022):
In brackets after ≈: the same amount, converted by molar mass.

Key:
Staphylococcus aureus [1] = experiment: Antibacterial activity against wild type Staphylococcus aureus 4788/B assessed as reduction in microbial growth incubated for 24 hrs by microdilution assay; assay type: functional
Staphylococcus aureus [2] = experiment: Antibacterial activity against […] Staphylococcus aureus 4460/A assessed as reduction in microbial growth incubated for 24 hrs by microdilution assay; assay type: functional
Staphylococcus aureus [3] = experiment: Antibacterial activity against wild type Staphylococcus aureus 4557/A assessed as reduction in microbial growth incubated for 24 hrs by microdilution assay; assay type: functional
Staphylococcus aureus [4] = experiment: microbe, parasite or virus in culture; details: 4880/C, 24 h
Description: Antibacterial activity against wild type Staphylococcus aureus 4880/C assessed as reduction in microbial growth incubated for 24 hrs by microdilution assay

Staphylococcus aureus [5] = experiment: Antibacterial activity against wild type Staphylococcus aureus 4566/A assessed as reduction in microbial growth incubated for 24 hrs by microdilution assay; assay type: functional
Staphylococcus aureus [6] = experiment: Antibacterial activity against wild type Staphylococcus aureus 4679/B assessed as reduction in microbial growth incubated for 24 hrs by microdilution assay; assay type: functional
Staphylococcus aureus [7] = experiment: Antibacterial activity against wild type methicillin resistant Staphylococcus aureus 4968/C assessed as reduction in microbial growth incubated for 24 hrs by microdilution assay; assay type: functional
Staphylococcus aureus [8] = experiment: Antibacterial activity against wild type Staphylococcus aureus 4904/C assessed as reduction in microbial growth incubated for 24 hrs by microdilution assay; assay type: functional
Staphylococcus aureus [9] = experiment: Antibacterial activity against wild type Staphylococcus aureus 4883/C assessed as reduction in microbial growth incubated for 24 hrs by microdilution assay; assay type: functional
Staphylococcus aureus [10] = experiment: Antibacterial activity against wild type Staphylococcus aureus 4740/B assessed as reduction in microbial growth incubated for 24 hrs by microdilution assay; assay type: functional
Staphylococcus aureus [11] = experiment: Antibacterial activity against wild type Staphylococcus aureus 4717/B assessed as reduction in microbial growth incubated for 24 hrs by microdilution assay; assay type: functional
Staphylococcus aureus [12] = experiment: Antibacterial activity against wild type Staphylococcus aureus 4738/B assessed as reduction in microbial growth incubated for 24 hrs by microdilution assay; assay type: functional
Staphylococcus aureus [13] = experiment: microbe, parasite or virus in culture; details: 4862/C, 24 h
Description: Antibacterial activity against wild type Staphylococcus aureus 4862/C assessed as reduction in microbial growth incubated for 24 hrs by microdilution assay

Staphylococcus aureus [14] = experiment: Antibacterial activity against wild type methicillin resistant Staphylococcus aureus 5017/C assessed as reduction in microbial growth incubated for 24 hrs by microdilution assay; assay type: functional
Staphylococcus aureus [15] = experiment: Antibacterial activity against wild type Staphylococcus aureus 4482/A assessed as reduction in microbial growth incubated for 24 hrs by microdilution assay; assay type: functional
Staphylococcus aureus [16] = experiment: Antibacterial activity against antibiotic resistant Staphylococcus aureus 77/CF assessed as reduction in microbial growth incubated for 24 hrs by microdilution assay; assay type: functional
Staphylococcus aureus [17] = experiment: Antibacterial activity against wild type Staphylococcus aureus 5079/C assessed as reduction in microbial growth incubated for 24 hrs by microdilution assay; assay type: functional
Staphylococcus aureus [18] = experiment: Antibacterial activity against wild type Staphylococcus aureus 4504/A assessed as reduction in microbial growth incubated for 24 hrs by microdilution assay; assay type: functional
Staphylococcus aureus [19] = experiment: Antibacterial activity against wild type Staphylococcus aureus 4502/A assessed as reduction in microbial growth incubated for 24 hrs by microdilution assay; assay type: functional
Staphylococcus aureus [20] = experiment: Antibacterial activity against wild type Staphylococcus aureus 4515/A assessed as reduction in microbial growth incubated for 24 hrs by microdilution assay; assay type: functional
Staphylococcus aureus [21] = experiment: Antibacterial activity against wild type Staphylococcus aureus 78/CF assessed as reduction in microbial growth incubated for 24 hrs by microdilution assay; assay type: functional
Staphylococcus aureus [22] = experiment: Antibacterial activity against […] Staphylococcus aureus 4461/A assessed as reduction in microbial growth incubated for 24 hrs by microdilution assay; assay type: functional
Staphylococcus aureus [23] = experiment: Antibacterial activity against […] Staphylococcus aureus 4463/A assessed as reduction in microbial growth incubated for 24 hrs by microdilution assay; assay type: functional
Staphylococcus aureus [24] = experiment: Antibacterial activity against wild type methicillin resistant Staphylococcus aureus 4561/A assessed as reduction in microbial growth incubated for 24 hrs by microdilution assay; assay type: functional
Staphylococcus aureus [25] = experiment: microbe, parasite or virus in culture; details: 5017/C, 24 h
Description: Antibacterial activity against wild type Staphylococcus aureus 5017/C assessed as reduction in microbial growth incubated for 24 hrs by microdilution assay

Staphylococcus aureus [26] = experiment: Antibacterial activity against wild type Staphylococcus aureus 4561/A assessed as reduction in microbial growth incubated for 24 hrs by microdilution assay; assay type: functional
Staphylococcus aureus [27] = experiment: Antibacterial activity against wild type Staphylococcus aureus 4968/C assessed as reduction in microbial growth incubated for 24 hrs by microdilution assay; assay type: functional
Staphylococcus aureus [28] = experiment: Antibacterial activity against wild type Staphylococcus aureus 77/CF assessed as reduction in microbial growth incubated for 24 hrs by microdilution assay; assay type: functional
Pseudomonas aeruginosa = experiment: Antibacterial activity against Pseudomonas aeruginosa assessed as reduction in microbial growth measured after 20 cycles by microdilution assay; assay type: functional; details: Pseudomonas aeruginosa; time 24 hrs
Staphylococcus aureus [29] = experiment: Antibacterial activity against antibiotic resistant Staphylococcus aureus 4502/A assessed as reduction in microbial growth incubated for 24 hrs by microdilution assay; assay type: functional
Staphylococcus aureus [30] = experiment: Antibacterial activity against antibiotic resistant Staphylococcus aureus 4504/A assessed as reduction in microbial growth incubated for 24 hrs by microdilution assay; assay type: functional
Staphylococcus aureus [31] = experiment: Antibacterial activity against antibiotic resistant Staphylococcus aureus 4679/B assessed as reduction in microbial growth incubated for 24 hrs by microdilution assay; assay type: functional

Compound | MIC (Staphylococcus aureus [1]) [µg/mL] | MIC (Staphylococcus aureus [2]) [µg/mL] | MIC (Staphylococcus aureus [3]) [µg/mL] | MIC (Staphylococcus aureus [4]) [µg/mL] | MIC (Staphylococcus aureus [5]) [µg/mL] | MIC (Staphylococcus aureus [6]) [µg/mL] | MIC (Staphylococcus aureus [8]) [µg/mL] | MIC (Staphylococcus aureus [9]) [µg/mL] | MIC (Staphylococcus aureus [10]) [µg/mL] | MIC (Staphylococcus aureus [11]) [µg/mL] | MIC (Staphylococcus aureus [12]) [µg/mL] | MIC (Staphylococcus aureus [13]) [µg/mL] | MIC (Staphylococcus aureus [15]) [µg/mL] | MIC (Staphylococcus aureus [17]) [µg/mL] | MIC (Staphylococcus aureus [18]) [µg/mL] | MIC (Staphylococcus aureus [19]) [µg/mL] | MIC (Staphylococcus aureus [20]) [µg/mL] | MIC (Staphylococcus aureus [21]) [µg/mL] | MIC (Staphylococcus aureus [22]) [µg/mL] | MIC (Staphylococcus aureus [23]) [µg/mL] | also measured
CCC[C@@H]1C[C@@H](C(=O)N[C@@H]([C@H]2O[C@H](SC)[C@H](O)[C@@H](O)[C@H]2O)[C@H](C)Cl)N(C)C1 [CLINDAMYCIN] | 0.063 | 0.125 | 0.125 | 0.25 (≈ 0.588 µM) | 0.125 | 0.125 | 0.125 | 0.125 | 0.125 | 0.125 | 0.125 | 0.125 (≈ 0.294 µM) | 0.125 | 0.063 | 0.125 | 0.063 | 0.125 | 0.063 | 0.125 | 0.125 | MIC (Staphylococcus aureus [7]): > 8 µg/mL; MIC (Staphylococcus aureus [14]): > 8 µg/mL; MIC (Staphylococcus aureus [16]): > 8 µg/mL; MIC (Staphylococcus aureus [24]): > 4 µg/mL
O=C(N[C@H](CO)[C@H](O)c1ccc([N+](=O)[O-])cc1)C(Cl)Cl [CHLORAMPHENICOL] | 2 | 2 | 2 | 2 (≈ 6.19 µM) | 4 | 4 | 2 | 4 | 1 | 4 | 4 | 4 (≈ 12.4 µM) | 2 | 2 | 4 | 2 | 2 | 1 | 2 | 2 | MIC (Staphylococcus aureus [25]): 4 µg/mL (≈ 12.4 µM); MIC (Staphylococcus aureus [26]): 4 µg/mL; MIC (Staphylococcus aureus [27]): 4 µg/mL; MIC (Staphylococcus aureus [28]): 1 µg/mL
Cc1onc(-c2ccccc2)c1C(=O)N[C@@H]1C(=O)N2[C@@H]1SC(C)(C)[C@@H]2C(=O)O [OXACILLIN] | 0.125 | 0.25 | 0.25 | 0.25 (≈ 0.623 µM) | 0.25 | 0.25 | 0.25 | 0.25 | 0.25 | 0.25 | 0.25 | 0.25 (≈ 0.623 µM) | 0.25 | 0.25 | 0.25 | 0.25 | 0.25 | 0.25 | 0.25 | 0.25 | MIC (Staphylococcus aureus [7]): > 16 µg/mL; MIC (Staphylococcus aureus [14]): > 16 µg/mL; MIC (Staphylococcus aureus [28]): 0.25 µg/mL; MIC (Staphylococcus aureus [24]): > 8 µg/mL
CC(C)(O/N=C(\C(=O)N[C@@H]1C(=O)N2C(C(=O)[O-])=C(C[n+]3ccccc3)CS[C@H]12)c1csc(N)n1)C(=O)O [CEFTAZIDIME] |  |  |  |  |  |  |  |  |  |  |  |  |  |  |  |  |  |  |  |  | MIC (Pseudomonas aeruginosa): 128 µg/mL
GENTAMICIN | 0.25 | 0.25 | 1 |  | 0.25 |  | 0.25 | 0.25 | 0.25 | 0.25 | 0.25 |  | 0.25 | 0.25 |  |  | 0.25 | 1 | 0.25 | 0.25 | MIC (Staphylococcus aureus [29]): > 32 µg/mL; MIC (Staphylococcus aureus [26]): 0.25 µg/mL; MIC (Staphylococcus aureus [30]): > 32 µg/mL; MIC (Staphylococcus aureus [27]): 0.25 µg/mL; MIC (Staphylococcus aureus [16]): > 32 µg/mL; MIC (Staphylococcus aureus [31]): > 32 µg/mL
